Source: PubChem BioAssay (NCI)
Values joined by “and” are separate entries in the source; they are usually repeats but may differ in a detail not shown here. Identical values can stand only once.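 Five compound concentrations were applied to cells in 96-well plates for 48 hours; endpoints were derived by simple linear interpolation of the resulting dose-response curve. Abbreviation: GI50, concentration required for 50% inhibition of growth. Definition used: TGI = concentration required for complete inhibition of growth.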

How the values were obtained:
Experiment in all cases: NCI-60 cell line screen, 48 h
MDA-MB-435 = test system: MDA-MB-435
HS 578T breast = test system: HS 578T breast
MDA-N = test system: MDA-N
XF 498 CNS = test system: XF 498 CNS
LXFL 529 NSCLC = test system: LXFL 529 NSCLC
KM20L2 colon = test system: KM20L2 colon
M19-MEL melanoma = test system: M19-MEL melanoma
DLD-1 colon = test system: DLD-1 colon
RXF-631 renal = test system: RXF-631 renal

SMILES | GI50 (MDA-MB-435) [µM] | TGI (MDA-MB-435) | GI50 (HS 578T breast) [µM] | TGI (HS 578T breast) | other results
COc1ccc2nc3ccccc3c(NCc3ccc(F)cc3)c2c1 | 2.14 | 8.26 µM | 2.22 | 12.1 µM | –
COc1cc(C(=O)N2CCN(C(=O)c3cc(OC)c(OC)c(OC)c3)C2=S)cc(OC)c1OC | 13.1 | 28.8 µM | 24.7 | > 100 µM | GI50 (MDA-N): 15 µM; TGI (MDA-N): 33.9 µM
C=CCC1(c2ccc(OC)cc2)C=CC(=O)CC1 (centres undefined) | – | > 100 µM | – | > 100 µM | TGI (MDA-N): > 100 µM
N#C/C(=C\c1ccc2ccccc2c1)C(=O)c1ccccc1 | – | 43.2 µM | – | 77.6 µM | TGI (XF 498 CNS): > 100 µM; TGI (LXFL 529 NSCLC): > 100 µM; TGI (KM20L2 colon): > 100 µM; TGI (M19-MEL melanoma): > 100 µM; TGI (DLD-1 colon): > 100 µM; TGI (MDA-N): > 100 µM
CC(NCCC(c1ccccc1)c1ccccc1)c1ccccc1 (centres undefined) | 2.54 | 7.76 µM | 4.04 | 23.9 µM | –
CCOC(=O)N[C@H]1CCc2cc(OC)c(OC)c(OC)c2-c2ccc(SC)c(=O)cc21 | – | – | – | > 100 µM | TGI (XF 498 CNS): 29.8 µM; TGI (KM20L2 colon): < 0.01 µM; TGI (DLD-1 colon): > 100 µM; TGI (MDA-N): > 100 µM
COc1ccc(-c2ccc(=O)oc2C#Cc2cc(OC)c(OC)c(OC)c2)cc1O | – | – | 0.696 | > 100 µM | –
C[C@@H]1C[C@@H]([C@@H](CC2CC(=O)NC(=O)C2)OC(=O)CC(=O)c2ccccc2)C(=O)[C@@H](C)C1 | 0.463 | > 32.6 µM | 0.604 | 10.9 µM | –
COc1ccc(-c2nnc3n(C)c(=O)c4ccccc4n23)cc1N | 0.0226 | 0.0799 µM | 4.43 | > 100 µM | –
C=CCCCCC1CCC2CCC(CCCCC=C)N12 (centres undefined) | – | – | – | – | TGI (LXFL 529 NSCLC): 26.9 µM; TGI (KM20L2 colon): 25.7 µM; TGI (M19-MEL melanoma): 37.3 µM
COc1ccc(C(=O)Nc2ccc(O)c(=O)cc2)cc1 | – | > 100 µM | – | > 100 µM | –
CCN1CCN(c2cc(C)c3cc(NC(=O)c4ccc(OC)c(OC)c4)ccc3n2)CC1 | 0.448 | 5.56 µM | 8.55 | > 74.1 µM | –
CC12CCC(=O)C[C@H]1CCC(OC=O)C2Br (some centres undefined) | – | – | – | – | TGI (XF 498 CNS): > 100 µM; TGI (LXFL 529 NSCLC): > 100 µM; TGI (KM20L2 colon): > 100 µM; TGI (M19-MEL melanoma): > 100 µM; TGI (DLD-1 colon): > 100 µM
N=c1c2c(-c3ccccc3)c(-c3ccccc3)n(Cc3ccccc3)c2ncn1C1CCC(O)CC1 (centres undefined) | 0.346 | 4.89 µM | 1.57 | 23.8 µM | –
CC1(C)OC2C(CO[Si](C)(C)C(C)(C)C)OC(n3c(I)c(C#C[Si](C)(C)C)c(=O)[nH]c3=O)C2O1 (centres undefined) | 15.7 | 44.3 µM | 16.8 | 51.1 µM | –
O=C(Nc1cccc(C(F)(F)F)c1)c1ccc(NC2=C(Cl)C(=O)N(Cc3ccc(Cl)cc3Cl)C2=O)cc1 | 16.1 | 32.4 µM | 2.88 | 8.26 µM | –
CNCCOC(=O)/C=C1\CC[C@H]2[C@@H]([C@@H](O)C(=O)[C@@H]3[C@]2(C)CC[C@H](O)[C@]3(C)C(=O)OC)[C@H]1C | 0.368 | 1.45 µM | 0.281 | 2.06 µM | –
NNC(=O)CNc1cccc(Br)c1 | – | > 100 µM | – | > 100 µM | TGI (MDA-N): > 100 µM
CCN(CC)CCNc1nc(N)c(C#N)c(C#N)c1C#N | – | > 10 µM | – | > 10 µM | TGI (MDA-N): > 10 µM

SMILES | GI50 (MDA-MB-435) [µM] | TGI (MDA-MB-435) | GI50 (HS 578T breast) [µM] | TGI (HS 578T breast) | other results
COC(=O)/C(C#N)=C1\N=NNN1c1ccc(OC)cc1 | – | – | – | – | TGI (LXFL 529 NSCLC): > 100 µM; TGI (RXF-631 renal): > 100 µM; TGI (M19-MEL melanoma): > 100 µM; TGI (DLD-1 colon): > 100 µM
CCOC(=O)Nc1cc2c(c(N)n1)N=C(c1ccccc1)CO2 | 0.0169 | 0.0399 µM | 0.388 | > 69.4 µM | –
Cc1nc(N)sc1N=Nc1ccccc1Br | – | 47.9 µM | – | – | TGI (MDA-N): 64.7 µM
NC(N)=NCCCC(=O)O | – | > 100 µM | – | > 100 µM | TGI (MDA-N): > 100 µM
CC(=O)ON1CCCC(P(=O)(OCCSC(=O)C(C)(C)C)OCCSC(=O)C(C)(C)C)C1=O (centres undefined) | 3.02 | 88.6 µM | 1.53 | 8.94 µM | –
COC(=O)[C@]12CC[C@@H](C)[C@H](C)[C@@H]1C1=CC[C@@H]3[C@@]4(C)C[C@@H](O)[C@H](O)[C@@](C)(CO)C4=CC[C@@]3(C)[C@]1(C)CC2 | 15.4 | 30.3 µM | 17.9 | 36.4 µM | –
CCCCCCCCCCCCCCCC(=O)OCCOCCOCCOCc1ccccc1 | – | – | – | – | TGI (XF 498 CNS): > 100 µM; TGI (M19-MEL melanoma): > 100 µM; TGI (DLD-1 colon): > 100 µM
COC1C(OC(=S)Nc2ccccc2)c2ccccc2N1C(C)=O (centres undefined) | – | – | – | – | TGI (XF 498 CNS): > 100 µM; TGI (LXFL 529 NSCLC): > 100 µM; TGI (KM20L2 colon): > 100 µM; TGI (M19-MEL melanoma): > 100 µM; TGI (DLD-1 colon): > 100 µM
NC1CCN(Cc2ccccc2)CC1 | > 100 | > 100 µM | – | – | –
Cc1nc(Nc2cccnc2)sc1C(=O)/C=C/c1ccc(F)cc1 | 2.71 | 11.2 µM | 4.05 | > 100 µM | –
CC1=Cc2cccc(C)c2C(=O)C1=O | – | – | – | – | TGI (XF 498 CNS): 9.65 µM; TGI (LXFL 529 NSCLC): 5.27 µM; TGI (KM20L2 colon): 35.5 µM; TGI (M19-MEL melanoma): 23.6 µM; TGI (DLD-1 colon): 4.32 µM
CCCC(=O)Nc1cn(COC)c(C(=O)N2C[C@@H]3C[C@]34C2=CC(=O)c2[nH]cc(C)c24)n1 | 11.1 | 27.4 µM and 27.1 µM | 12.2 | 44.6 µM and 41.2 µM | GI50 (MDA-N): 12.7 µM; TGI (MDA-N): 19.3 µM and 31.3 µM
O=C(/C(=C/c1ccc(Cl)cc1)c1ccccc1)c1ccccc1 | – | – | – | – | TGI (XF 498 CNS): 34.5 µM; TGI (LXFL 529 NSCLC): 33.7 µM; TGI (DLD-1 colon): 31.8 µM
CCOC(=O)c1nc2c(OC)nn(O)cc-2c1[N+](=O)[O-] | – | – | – | – | TGI (XF 498 CNS): 29.6 µM; TGI (LXFL 529 NSCLC): 31 µM; TGI (KM20L2 colon): 30.1 µM; TGI (M19-MEL melanoma): 89.2 µM; TGI (DLD-1 colon): 33.7 µM
N#Cc1nn(-c2cc(=O)[nH]c3ccc(Cl)cc23)c(N)c1C#N | > 100 | > 100 µM | > 100 | > 100 µM | –
Cc1c(N(C)C)ccc2c(=O)c3cccc(CC(=O)O)c3oc12 | – | > 100 µM | – | > 100 µM | TGI (KM20L2 colon): > 100 µM; TGI (RXF-631 renal): > 100 µM; TGI (M19-MEL melanoma): > 100 µM; TGI (DLD-1 colon): > 100 µM; TGI (MDA-N): > 100 µM
O=C(/C=C/c1ccc[nH]1)c1ccc(-n2ccc(C(F)(F)F)n2)cc1 | > 100 | > 100 µM | > 100 | > 100 µM | –
COCC(OC)C(CC=C(C#N)C#N)OC (centres undefined) | – | – | – | – | TGI (XF 498 CNS): > 100 µM; TGI (LXFL 529 NSCLC): > 100 µM; TGI (KM20L2 colon): > 100 µM; TGI (M19-MEL melanoma): > 100 µM
